According to PubChem BioAssay (NCI):
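How tested: cells in 96-well plates exposed to compound for 48 hours at five concentrations. Definition used: TGI = concentration required for complete inhibition of growth.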

What was measured:
Experiment in all cases: DTP human tumour cell line panel, 48 h
UO-31 renal = test system: UO-31 renal
A549 NSCLC = test system: A549 NSCLC
A498 renal = test system: A498 renal
HS 578T breast = test system: HS 578T breast
NCI-H23 lung = test system: NCI-H23 lung
SK-MEL-28 melanoma = test system: SK-MEL-28 melanoma
HL-60(TB) leukemia = test system: HL-60(TB) leukemia
OVCAR-5 ovarian = test system: OVCAR-5 ovarian
HCT-116 colon = test system: HCT-116 colon
SNB-19 CNS = test system: SNB-19 CNS
SR leukemia = test system: SR leukemia
OVCAR-8 ovarian = test system: OVCAR-8 ovarian
NCI-H460 lung = test system: NCI-H460 lung
RPMI-8226 leukemia = test system: RPMI-8226 leukemia
MDA-N = test system: MDA-N
CAKI-1 renal = test system: CAKI-1 renal
SF-539 CNS = test system: SF-539 CNS
SF-295 CNS = test system: SF-295 CNS
IGROV1 ovarian = test system: IGROV1 ovarian

Row | Compound | TGI (UO-31 renal) [µM] | TGI (A549 NSCLC) [µM] | TGI (A498 renal) [µM] | TGI (HS 578T breast) [µM] | TGI (NCI-H23 lung) [µM] | TGI (SK-MEL-28 melanoma) [µM] | TGI (HL-60(TB) leukemia) [µM] | TGI (OVCAR-5 ovarian) [µM] | TGI (HCT-116 colon) [µM] | TGI (SNB-19 CNS) [µM] | TGI (SR leukemia) [µM] | TGI (OVCAR-8 ovarian) [µM] | TGI (NCI-H460 lung) [µM] | TGI (RPMI-8226 leukemia) [µM] | TGI (MDA-N) [µM] | TGI (CAKI-1 renal) [µM] | TGI (SF-539 CNS) [µM] | TGI (SF-295 CNS) [µM] | TGI (IGROV1 ovarian) [µM]
1 | NC(=O)NC(=O)c1ccc(NC(=O)CBr)cc1 | 2.78 | > 32.6 | 36 | 7.37 | 4.59 | 13.1 | 3.27 | 7.34 | 2.29 | > 49.8 | 1.01 | 8.38 | 9.74 | 3.59 | 5 | 1.52 | 6.35 | 27.3 | 4.78
2 | O=Cc1ccc2c(c1)CC1(C2)Cc2ccc(C=O)cc2C1 | > 50.6 | > 95.3 | 69.7 | 28.7 | 49.8 | 59.1 | 5.72 | > 100 | 19.6 | 89.2 | 6.77 | 31.3 | 32.8 | 22.1 | 5.99 | > 100 | 15.1 | > 70.4 | 54.5
3 | COc1cc(/C=C2\N=C(c3ccccc3)N(/N=C/c3cc4cc(C)ccc4nc3Cl)C2=O)cc(OC)c1OC | > 100 | > 100 | > 100 | 88.8 | – | > 100 | 28.2 | > 100 | > 100 | > 100 | 57.4 | > 100 | > 100 | 42.8 | 48.6 | > 100 | 41.8 | > 100 | > 100
4 | COC(=O)/C(C#N)=C(\Nc1ccccc1)N1CCCCC1 | > 100 | > 100 | > 100 | > 100 | > 100 | > 100 | > 100 | > 100 | > 100 | > 100 | > 100 | > 100 | > 100 | > 100 | > 100 | > 100 | > 100 | > 100 | > 100
5 | CC(C)(CCCCC(C)(C)NCC1COc2ccccc2O1)NCC1COc2ccccc2O1 (stereo not given) | – | > 10 | > 10 | > 10 | > 10 | 3.66 | > 10 | > 10 | > 10 | > 10 | > 10 | > 10 | > 10 | > 10 | 5.66 | > 10 | 3.34 | > 10 | > 10
6 | COc1cc(/C=N/NC2=NCCCN2)ccc1O | > 100 | > 100 | > 100 | > 100 | > 100 | > 100 | > 100 | > 100 | > 100 | > 100 | > 100 | > 100 | > 100 | > 100 | > 100 | – | > 100 | > 100 | > 100
7 | N#CC1=C(N2CCOCC2)CCC1 | > 100 | > 100 | > 100 | > 100 | > 100 | – | > 100 | > 100 | > 100 | > 100 | > 100 | > 100 | – | > 100 | > 100 | > 100 | > 100 | > 100 | > 100
8 | O=c1[nH]n(Cc2ccccc2CCl)c2ccc([N+](=O)[O-])cc12 | > 100 | > 100 | > 100 | > 100 | > 100 | > 100 | 99.6 | > 100 | > 100 | > 100 | > 100 | > 100 | 95.8 | > 100 | > 100 | 63.3 | > 100 | > 100 | > 100
9 | COC(=O)[C@]12CSC[C@H]1C[C@H](c1ccc(N(C)C)cc1)N2 | > 100 | > 100 | > 100 | > 100 | > 100 | > 100 | > 100 | > 100 | > 100 | > 100 | > 100 | > 100 | > 100 | > 31.6 | > 100 | > 100 | > 100 | > 100 | > 100
10 | COc1cc(C2S/C(=C/c3ccccc3)C(=O)N2c2ccc([N+](=O)[O-])cc2)cc(OC)c1OC (stereo not given) | > 100 | > 100 | > 100 | > 100 | > 100 | > 100 | > 100 | > 100 | > 100 | > 100 | > 100 | > 100 | > 100 | > 100 | > 100 | > 100 | > 100 | > 100 | > 83.5
11 | CC1(C)OC(=O)CC12CCN(Cc1ccccc1)CC2 | > 100 | > 100 | > 100 | > 100 | > 100 | > 100 | > 100 | > 100 | > 100 | > 100 | > 100 | > 100 | – | > 100 | > 100 | > 100 | > 100 | > 100 | > 100
12 | Cc1n[nH]c(=O)n1/N=C/c1cccnc1 | > 100 | > 100 | > 100 | > 100 | > 100 | > 100 | > 100 | > 100 | > 100 | > 100 | > 100 | > 100 | > 100 | > 100 | > 100 | > 100 | > 100 | > 100 | > 100
13 | O=c1[nH]c2ccsc2c(=O)n1COCc1ccccc1 | > 100 | > 100 | > 100 | > 100 | > 100 | > 100 | > 100 | > 100 | > 100 | > 100 | > 100 | > 100 | > 100 | > 100 | > 100 | > 100 | > 100 | > 100 | > 100
14 | COc1ccc(CCN(C)C(=O)CC(C#N)(c2ccccc2)c2ccc(OC)c(OC)c2)cc1OC (stereo not given) | > 100 | > 100 | > 100 | > 100 | > 100 | > 100 | > 100 | > 100 | > 100 | > 100 | 99.3 | > 100 | > 100 | > 100 | > 100 | > 100 | > 100 | > 100 | > 100
15 | CNC(=S)NNC1=NCCCCN1 | > 100 | > 100 | > 100 | > 100 | > 100 | > 100 | > 100 | > 100 | > 100 | > 100 | > 100 | > 100 | > 100 | > 100 | > 100 | > 100 | > 100 | > 100 | > 100
16 | NC(=S)N/N=C(/C(=O)Nc1nc2ccc([N+](=O)[O-])cc2s1)C1C(=O)NC(=S)NC1=O | > 100 | > 100 | > 100 | 74.3 | > 100 | > 100 | > 100 | > 100 | > 100 | > 100 | > 100 | > 100 | > 100 | > 100 | > 100 | > 100 | > 100 | > 100 | –
17 | CCn1c(SCC(=O)NNC(=S)Nc2ccc(F)cc2)nc2ccccc2c1=O | > 100 | > 100 | > 100 | > 100 | > 100 | > 100 | > 100 | > 100 | > 100 | > 100 | > 100 | > 100 | – | > 100 | > 100 | – | > 100 | > 100 | > 100
18 | COC(=O)c1c(C(=O)OC)c(C(c2ccccc2)c2ccccc2)n(-c2ccccc2)c1Cl | > 10 | > 10 | > 10 | > 10 | > 10 | > 10 | > 10 | > 10 | > 10 | > 10 | > 10 | > 10 | > 10 | > 10 | > 10 | > 10 | > 10 | > 10 | > 10
19 | CC(C)N(c1cc2c(cc1F)c(=O)c(C(=O)O)cn2-c1ccc(N2CCN(C)CC2)cn1)C(C)C | > 100 | > 100 | > 100 | > 100 | > 100 | > 100 | > 100 | > 100 | > 100 | > 100 | > 100 | > 100 | > 100 | > 100 | > 100 | > 100 | > 100 | > 100 | > 100
20 | COC(=O)C(Cc1c[nH]c2ccccc12)NP(=O)(O)OCC1OC(n2cc(F)c(=O)[nH]c2=O)CC1O (stereo not given) | > 100 | > 100 | > 100 | > 100 | > 100 | > 100 | > 100 | > 100 | > 100 | > 100 | > 51.9 | > 100 | > 100 | > 100 | > 100 | – | > 100 | > 100 | > 100
